Source: US6706663B2, “Herbicidal 3-heterocyclic substituted benzisothiazole and benzisoxazole compounds” (Wyeth, priority 2000, dated 2004)

Key:
GALAP (Galium aparine) = assay: Postemergence herbicidal evaluation; format: in vivo; conditions: postemergence
In short: (§1)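 Seedlings grown about two weeks in flats, sprayed, then kept under standard greenhouse care. Rated visually 4–5 weeks after treatment on a 0–9 scale (stand, vigour, malformation, size, chlorosis, overall appearance) relative to untreated control; repeat tests averaged.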

[1] = system: GLXMAW (Soybean, Williams); assay: Postemergence herbicidal evaluation; format: in vivo, Glycine max, (L.) Merr. cv Williams; conditions: postemergence
In short: as §1

[2] = system: ECHORC (Echinochloa oryzoides); assay: Flooded paddy, preemergence weed control; format: in vivo, Echinochloa oryzoides (Ard.) Fritsch.; conditions: rated 3-4 weeks after treatment, 0-9 rating scale
In short: (§2)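 Scoring used a 0-9 visual scale relative to control. Before that, seeds or propagules were planted shallowly in silt loam and flooded to 1.5–3 cm, a depth maintained throughout, with greenhouse care during the test.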

ORYSAT (Rice, Tebonnet) [3] = assay: Flooded paddy, post-transplant rice tolerance; format: in vivo, Oryza sativa, (L.) Tebonnet; conditions: flooded paddy, post-transplant rice, rated 3-4 weeks after treatment, 0-9 rating scale
In short: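 Scores (0-9) reflect visual injury relative to untreated plants in flooded silt loam. Each pot held two transplanted ten-day-old seedlings under 1.5 to 3 cm standing water in the greenhouse.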

[4] = system: SAGPY (Sagittaria pygmaea); assay: Flooded paddy, preemergence weed control; format: in vivo, L.; conditions: rated 3-4 weeks after treatment, 0-9 rating scale
In short: as §2

[5] = system: IPOHE (Ipomoea hederacea); assay: Postemergence herbicidal evaluation; format: in vivo, (L.) Jacq.; conditions: postemergence
In short: as §1

ZEAMX (Corn, Field) = assay: Postemergence herbicidal evaluation; format: in vivo, Zea mays, L.; conditions: postemergence
In short: as §1

[6] = system: ECHCG (Echinochloa crus-galli); assay: Postemergence herbicidal evaluation; format: in vivo, (L.) Beau; conditions: postemergence
In short: as §1

CYPIR (Cyperus iria) = assay: Flooded paddy, preemergence weed control; format: in vivo; conditions: rated 3-4 weeks after treatment, 0-9 rating scale
In short: as §2

[7] = system: IPOHE (Ipomoea hederacea); assay: Preemergence herbicidal evaluation; format: in vivo, (L.) Jacq.; conditions: rated 4-5 weeks after treatment
[8] = system: MOOVA (Monochoria vaginalis); assay: Flooded paddy, preemergence weed control; format: in vivo, Presl.; conditions: rated 3-4 weeks after treatment, 0-9 rating scale
In short: as §2

[9] = system: AMBEL (Ambrosia artemisifolia); assay: Preemergence herbicidal evaluation; format: in vivo, L.; conditions: rated 4-5 weeks after treatment
In short: (§3)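 Scores (0–9) reflect visual comparison with control plants for stand, vigor, malformation, size and chlorosis. Seeds in potting soil received a post-planting spray of compound in aqueous acetone and grew in a greenhouse until assessment 4–5 weeks later.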

[10] = system: CHEAL (Chenopodium album); assay: Preemergence herbicidal evaluation; format: in vivo, L.; conditions: rated 4-5 weeks after treatment
In short: as §3

[11] = system: CASOB (Cassia obtusifolia); assay: Preemergence herbicidal evaluation; format: in vivo, L.; conditions: rated 4-5 weeks after treatment
In short: as §3

[12] = system: ABUTH (Abutilon theophrasti); assay: Postemergence herbicidal evaluation; format: in vivo, Medic.; conditions: postemergence
In short: as §1

ORYSAT (Rice, Tebonnet) [13] = assay: Preemergence herbicidal evaluation; format: in vivo, Oryza sativa, (L.) Tebonnet; conditions: rated 4-5 weeks after treatment
ORYSAT (Rice, Tebonnet) [14] = assay: Postemergence herbicidal evaluation; format: in vivo, Oryza sativa, (L.) Tebonnet; conditions: postemergence
In short: as §1

[15] = system: ECHCG (Echinochloa crus-galli); assay: Preemergence herbicidal evaluation; format: in vivo, (L.) Beau; conditions: rated 4-5 weeks after treatment
In short: as §3

SETVI (Setaria viridis) [16] = assay: Preemergence herbicidal evaluation; format: in vivo, (L.) Beau; conditions: rated 4-5 weeks after treatment
In short: as §3

SETVI (Setaria viridis) [17] = assay: Postemergence herbicidal evaluation; format: in vivo, (L.) Beau; conditions: postemergence
In short: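 Seedlings grown about two weeks were sprayed with compound in 50/50 acetone/water containing 0.5% TWEEN 20, at about 0.0040 to 1.000 kg/ha via nozzle at 40 psi. Plants were kept under greenhouse conditions and visually rated on a 0-9 scale versus control four to five weeks after treatment; replicate tests averaged.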

C=C1COC(c2nsc3ccc(-n4c(=O)cc(C(F)(F)F)n(C)c4=O)cc23)OC1 [Compound 58, 2,4(1H,3H)-pyrimidinedione, 1-methyl-3-[3-(5-methylene-m-dioxan-2-yl)-1,2-benzisothiazol-5-yl]-6-(trifluoromethyl)-]
GALAP herbicidal rating (GALAP (Galium aparine); rate 0.0320 kg/ha): 7.0
GALAP herbicidal rating (GALAP (Galium aparine); rate 0.0620 kg/ha): 9.0
GLXMAW herbicidal rating ([1]; rate 0.0320 kg/ha): 7.0
GLXMAW herbicidal rating ([1]; rate 0.0620 kg/ha): 7.5
herbicidal rating, ECHORC ([2]; rate 0.0320 kg/ha): 6.0
herbicidal rating, ECHORC ([2]; rate 0.1250 kg/ha): 9.0
herbicidal rating, ORYSAT (rice tolerance) (ORYSAT (Rice, Tebonnet) [3]; rate 0.0320 kg/ha): 4.0
herbicidal rating, ORYSAT (rice tolerance) (ORYSAT (Rice, Tebonnet) [3]; rate 0.1250 kg/ha): 7.0
herbicidal rating, SAGPY ([4]; rate 0.0320 kg/ha): 2.0
herbicidal rating, SAGPY ([4]; rate 0.1250 kg/ha): 5.0
IPOHE herbicidal rating ([5]; rate 0.0320 kg/ha): 9.0
IPOHE herbicidal rating ([5]; rate 0.0620 kg/ha): 9.0
ZEAMX herbicidal rating (ZEAMX (Corn, Field); rate 0.0320 kg/ha): 5.5
ZEAMX herbicidal rating (ZEAMX (Corn, Field); rate 0.0620 kg/ha): 5.5
ECHCG herbicidal rating ([6]; rate 0.0320 kg/ha): 1.0
ECHCG herbicidal rating ([6]; rate 0.0620 kg/ha): 3.0
herbicidal rating, CYPIR (CYPIR (Cyperus iria); rate 0.0320 kg/ha): 6.0
herbicidal rating, CYPIR (CYPIR (Cyperus iria); rate 0.1250 kg/ha): 9.0
Preemergence herbicidal rating IPOHE ([7]; Rate 0.0620 kg/ha): 6.5
Preemergence herbicidal rating IPOHE ([7]; Rate 0.1250 kg/ha): 7.5
Preemergence herbicidal rating IPOHE ([7]; Rate 0.2500 kg/ha): 9.0
herbicidal rating, MOOVA ([8]; rate 0.0320 kg/ha): 9.0
herbicidal rating, MOOVA ([8]; rate 0.1250 kg/ha): 9.0
Preemergence herbicidal rating AMBEL ([9]; Rate 0.0620 kg/ha): 9.0
Preemergence herbicidal rating AMBEL ([9]; Rate 0.1250 kg/ha): 9.0
Preemergence herbicidal rating AMBEL ([9]; Rate 0.2500 kg/ha): 9.0
Preemergence herbicidal rating CHEAL ([10]; Rate 0.0620 kg/ha): 9.0
Preemergence herbicidal rating CHEAL ([10]; Rate 0.1250 kg/ha): 9.0
Preemergence herbicidal rating CHEAL ([10]; Rate 0.2500 kg/ha): 9.0
Preemergence herbicidal rating CASOB ([11]; Rate 0.0620 kg/ha): 5.5
Preemergence herbicidal rating CASOB ([11]; Rate 0.1250 kg/ha): 6.5
Preemergence herbicidal rating CASOB ([11]; Rate 0.2500 kg/ha): 9.0
ABUTH herbicidal rating ([12]; rate 0.0320 kg/ha): 9.0
ABUTH herbicidal rating ([12]; rate 0.0620 kg/ha): 9.0
Preemergence herbicidal rating ORYSAT (ORYSAT (Rice, Tebonnet) [13]; Rate 0.0620 kg/ha): 8.5
Preemergence herbicidal rating ORYSAT (ORYSAT (Rice, Tebonnet) [13]; Rate 0.1250 kg/ha): 9.0
Preemergence herbicidal rating ORYSAT (ORYSAT (Rice, Tebonnet) [13]; Rate 0.2500 kg/ha): 9.0
ORYSAT herbicidal rating (ORYSAT (Rice, Tebonnet) [14]; rate 0.0320 kg/ha): 3.5
ORYSAT herbicidal rating (ORYSAT (Rice, Tebonnet) [14]; rate 0.0620 kg/ha): 5.0
Preemergence herbicidal rating ECHCG ([15]; Rate 0.0620 kg/ha): 9.0
Preemergence herbicidal rating ECHCG ([15]; Rate 0.1250 kg/ha): 9.0
Preemergence herbicidal rating ECHCG ([15]; Rate 0.2500 kg/ha): 9.0
Preemergence herbicidal rating SETVI (SETVI (Setaria viridis) [16]; Rate 0.0620 kg/ha): 8.0
Preemergence herbicidal rating SETVI (SETVI (Setaria viridis) [16]; Rate 0.1250 kg/ha): 9.0
Preemergence herbicidal rating SETVI (SETVI (Setaria viridis) [16]; Rate 0.2500 kg/ha): 9.0
SETVI herbicidal rating (SETVI (Setaria viridis) [17]; rate 0.0320 kg/ha): 1.0
SETVI herbicidal rating (SETVI (Setaria viridis) [17]; rate 0.0620 kg/ha): 6.0
